From the supplement of paper PMC11208160

Experiment: recombinant UMI read abundance after kanamycin selection (control-corrected) (log10(CPM+1)); higher = more efficient recombination; extreme values may be limits of the assay; sequences stand for … in AGTGCAGAGAAAATCGGCCAGTTTTCTCTGCCTGCAGTCCGCATGCCGTGGGACCCCTTGGGTTCTAACCTGTTGCCTAGATTTATGCAGCGGACTGCCTTTCTCCCAAAGTGATAAACCGG…AGGTTGGTTTCACT; site = the 11-nt donor
Description: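 Pooled E. coli donor-specificity screen for the IS621 bridge recombinase. Each library member carries a reprogrammed 11-nt donor and a full-length LE bridge RNA expressed in cis from the natural promoter, with a paired donor-binding loop (8-nt LDG + 4-nt RDG) and a target-binding loop fixed to T5. It is co-electroporated with a T5 target plasmid; recombinase is induced with 0.07 mM IPTG and recombinants are selected on kanamycin. UMIs are counted as CPM, averaged over two biological replicates and corrected by the unselected control. Molecule = full bridge RNA written as DNA, built from the T5 scaffold: LDG = donor specificity nt 1-8, RDG = reverse complement of nt 8-11.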
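Note: IS621 bridge recombinase in Escherichia coli cells against a fixed T5 target plasmid.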

“TATTTGGCATGGACCGGTTTTCCCGGTAATCCGTATTTGTC (site TATTTGGCTAA)” and “GCCACGCCATGGACCGGTTTTCCCGGTAATCCGTATTTGTA (site GCCGCGCCTTA)” are within 0.2 log units of each other in “recombinant UMI read abundance (log10)” value: 0.0189 for the first, 0.00414 for the second.

“TGGCCGGCATGGACCGGTTTTCCCGGTAATCCGTATTTGGC (site CGGCCGGCTGC)” and “CCCCAGCCATGGACCGGTTTTCCCGGTAATCCGTATTTGCC (site CCCAAGCCTGG)” are the same in “recombinant UMI read abundance (log10)” value: 0 for the first, 0 for the second.

Compared with “GCCACGCCATGGACCGGTTTTCCCGGTAATCCGTATTTGTA (site GCCACGCCTCA)”, “CAATGCTCATGGACCGGTTTTCCCGGTAATCCGTATTTGAG (site CAATGCTCTGT)” is higher in “recombinant UMI read abundance (log10)” value: 0.00817 for the first, 0.535 for the second.

Going from “ATTGAGACATGGACCGGTTTTCCCGGTAATCCGTATTTGAT (site ATTGAGACTAT)” to “GACGCAACATGGACCGGTTTTCCCGGTAATCCGTATTTGTA (site GACGCAACTTA)”, the “recombinant UMI read abundance (log10)” value falls from 2.01 to 1.34.

Compared with “GTCTAGACATGGACCGGTTTTCCCGGTAATCCGTATTTGCA (site GTCTAGACTTG)”, “TAGGAATCATGGACCGGTTTTCCCGGTAATCCGTATTTGCG (site TAGGAATCTCC)” is lower in “recombinant UMI read abundance (log10)” value: 2.13 for the first, 1.39 for the second.

“TCTTCTTCATGGACCGGTTTTCCCGGTAATCCGTATTTGAA (site TCTTCTTCTTT)” and “GATTATCCATGGACCGGTTTTCCCGGTAATCCGTATTTGCG (site GATTATCCTGG)” are within 0.2 log units of each other in “recombinant UMI read abundance (log10)” value: 0.00225 for the first, 0 for the second.

“AGAAAGGCATGGACCGGTTTTCCCGGTAATCCGTATTTGCT (site ATAAAGGCTAG)” and “CTGAATCCATGGACCGGTTTTCCCGGTAATCCGTATTTGTG (site CGGAATCCTAA)” are within 0.2 log units of each other in “recombinant UMI read abundance (log10)” value: 0 for the first, 0.00601 for the second.

“CCCAAATCATGGACCGGTTTTCCCGGTAATCCGTATTTGTC (site CCCAGATCTGA)” and “CGACGGTCATGGACCGGTTTTCCCGGTAATCCGTATTTGCC (site TATGCCGCTAT)” are the same in “recombinant UMI read abundance (log10)” value: 0 for the first, 0 for the second.

Compared with “CGCATCTCATGGACCGGTTTTCCCGGTAATCCGTATTTGTG (site CGCATCTCTCA)”, “AGATCGACATGGACCGGTTTTCCCGGTAATCCGTATTTGTT (site CGATCGACTAA)” is lower in “recombinant UMI read abundance (log10)” value: 1.83 for the first, 0.0123 for the second.

Going from “GCCACGCCATGGACCGGTTTTCCCGGTAATCCGTATTTGTA (site GCCACGCCTGA)” to “AGGAGGACATGGACCGGTTTTCCCGGTAATCCGTATTTGCA (site AGGAGGACTTG)”, the “recombinant UMI read abundance (log10)” value rises from 0 to 2.56.

Going from “CTGGCTGCATGGACCGGTTTTCCCGGTAATCCGTATTTGCG (site CTGGCTGCTCG)” to “GCATCGGCATGGACCGGTTTTCCCGGTAATCCGTATTTGCC (site GCATCGGCTGG)”, the “recombinant UMI read abundance (log10)” value falls from 0.887 to 0.599.

Compared with “AGTAAGTCATGGACCGGTTTTCCCGGTAATCCGTATTTGAA (site AGTAAGTCTTT)”, “ACTAGAGCATGGACCGGTTTTCCCGGTAATCCGTATTTGAG (site ACTAGATCTCT)” is lower in “recombinant UMI read abundance (log10)” value: 2.1 for the first, 1.65 for the second.

First: ACTAGGGCATGGACCGGTTTTCCCGGTAATCCGTATTTGGT (site ACTAGGGCTAC)
Second: GGGACTACATGGACCGGTTTTCCCGGTAATCCGTATTTGAC (site CGGACTACTGT)
The “recombinant UMI read abundance (log10)” value of the first is higher: 1.2 for the first, 0 for the second.

“GACCTACCATGGACCGGTTTTCCCGGTAATCCGTATTTGTC (site GACCTACCTGA)” and “ATGGCACCATGGACCGGTTTTCCCGGTAATCCGTATTTGGG (site ATGGCACCTCC)” are within 0.2 log units of each other in “recombinant UMI read abundance (log10)” value: 0 for the first, 0.00577 for the second.

Compared with “TAGGAATCATGGACCGGTTTTCCCGGTAATCCGTATTTGCG (site TAGGAAACTCG)”, “GGGGCACCATGGACCGGTTTTCCCGGTAATCCGTATTTGCA (site AGGGCACCTTG)” is lower in “recombinant UMI read abundance (log10)” value: 1.27 for the first, 0 for the second.

Compared with “CCTAACACATGGACCGGTTTTCCCGGTAATCCGTATTTGGC (site CCTAACACTGC)”, “CGGACTCCATGGACCGGTTTTCCCGGTAATCCGTATTTGGT (site CGGACTCCTAC)” is higher in “recombinant UMI read abundance (log10)” value: 0 for the first, 0.215 for the second.

Compared with “TGCTAGACATGGACCGGTTTTCCCGGTAATCCGTATTTGGT (site TGCTAGACTAC)”, “TGCTAGGCATGGACCGGTTTTCCCGGTAATCCGTATTTGGT (site GGCTAGGCTAC)” is lower in “recombinant UMI read abundance (log10)” value: 0.462 for the first, 0.0224 for the second.

Compared with “TGGCCCGCATGGACCGGTTTTCCCGGTAATCCGTATTTGGC (site TGGCCTGCTGC)”, “TCAAAGACATGGACCGGTTTTCCCGGTAATCCGTATTTGCG (site TCATAGACTCG)” is higher in “recombinant UMI read abundance (log10)” value: 0 for the first, 0.773 for the second.

Compared with “ACGGGCGCATGGACCGGTTTTCCCGGTAATCCGTATTTGAG (site ACGGGCGCTCT)”, “TCCAACTCATGGACCGGTTTTCCCGGTAATCCGTATTTGCC (site TCCAAGTCTGG)” is lower in “recombinant UMI read abundance (log10)” value: 1.15 for the first, 0 for the second.

Going from “CGGACGTCATGGACCGGTTTTCCCGGTAATCCGTATTTGCT (site CGGACTTCTAG)” to “TGCTAGTCATGGACCGGTTTTCCCGGTAATCCGTATTTGGT (site TGCTAGTCTAC)”, the “recombinant UMI read abundance (log10)” value rises from 0.597 to 1.07.

Going from “GAATGCACATGGACCGGTTTTCCCGGTAATCCGTATTTGTA (site GTATGCACTTA)” to “GAACGGCCATGGACCGGTTTTCCCGGTAATCCGTATTTGCA (site GAACGGCCTTG)”, the “recombinant UMI read abundance (log10)” value rises from 0.36 to 0.812.

“CGGGGACCATGGACCGGTTTTCCCGGTAATCCGTATTTGGG (site CGAGGACCTCC)” and “CGCTAGGCATGGACCGGTTTTCCCGGTAATCCGTATTTGGT (site AGCTAGGCTAC)” are within 0.2 log units of each other in “recombinant UMI read abundance (log10)” value: 0.0137 for the first, 0.0207 for the second.

“GCGAAAGCATGGACCGGTTTTCCCGGTAATCCGTATTTGCT (site GCGAAATCTAG)” and “ATCACACCATGGACCGGTTTTCCCGGTAATCCGTATTTGTC (site ATCACACCTGA)” are the same in “recombinant UMI read abundance (log10)” value: 0 for the first, 0 for the second.

“AGCTAAGCATGGACCGGTTTTCCCGGTAATCCGTATTTGGG (site AGCTAAGCTCC)” and “ATCCCTTCATGGACCGGTTTTCCCGGTAATCCGTATTTGTG (site ATCCCTTCTCA)” are within 0.2 log units of each other in “recombinant UMI read abundance (log10)” value: 0.00725 for the first, 0.0697 for the second.

First: CTATGATCATGGACCGGTTTTCCCGGTAATCCGTATTTGAC (site CTAGTATCTGT)
Second: CCCAAGCCATGGACCGGTTTTCCCGGTAATCCGTATTTGCC (site CCCTAGCCTGG)
The “recombinant UMI read abundance (log10)” value of the first is lower: 0 for the first, 0.398 for the second.

Going from “TAAAGCTCATGGACCGGTTTTCCCGGTAATCCGTATTTGTT (site TAAAGCTCTAA)” to “TAGCCTTCATGGACCGGTTTTCCCGGTAATCCGTATTTGAT (site TAGCCTTCTAA)”, the “recombinant UMI read abundance (log10)” value falls from 1.48 to 0.00922.

“TTAGCTCCATGGACCGGTTTTCCCGGTAATCCGTATTTGTG (site TTAGCTACTCA)” and “TGTACACCATGGACCGGTTTTCCCGGTAATCCGTATTTGAC (site TGTGCACCTGT)” are within 0.2 log units of each other in “recombinant UMI read abundance (log10)” value: 0.00349 for the first, 0 for the second.

First: TTATGGTCATGGACCGGTTTTCCCGGTAATCCGTATTTGGC (site TTATGGTCTGC)
Second: CTACTCCCATGGACCGGTTTTCCCGGTAATCCGTATTTGGC (site CTACTCCCTGC)
The “recombinant UMI read abundance (log10)” value of the first is higher: 1.88 for the first, 1.59 for the second.

With “GAACACCCATGGACCGGTTTTCCCGGTAATCCGTATTTGGA (site GAACACCCTTC)” the “recombinant UMI read abundance (log10)” value was 0.00915.
